According to patent US7338932B2, “Methods of modulating functions of polypeptide GalNAc-transferases and of screening test substances to find agents herefor, pharmaceutical compositions comprising such agents and the use of such agents for preparing medicaments” (Glycozym APS, priority 2000, dated 2008):

Experiments:
[1] = test system: wild type CHO/MUC1sol-cloneC4; assay: Secretion of MUC1, western blot of medium; type: cell-based, Chinese Hamster; conditions: 1-2 mM; compared to control treated or non-treated cells
Experimental: In order to characterize the secreted MUC1 product SDS-PAGE western blot analysis of harvested culture medium of confluent cultures were performed. Ten to twenty μL culture supernatant was analysed directly or treated with 0.1 U/mL neuraminidase (C. Perfringes VI, Sigma) for 30-60 min at 37° C. Samples were mixed with SDS sample buffer, reduced with DTT, and run on precast 4-20% gels (Biorad). As shown in FIG. 9 anti-MUC1 antibodies detected two forms of MUC1 in the medium; a low molecular weight form migrating as 130-140 kd corresponding to unglycosylated product, and a high molecular weight form migrating above 250 kd. The high molecular weight form was sensitive to neuraminidase treatment as evidenced by a marked shift and retardation in migration. […]
Because GalNAcα-benzyl exerts separate effects on O-glycan processing and mucin expression, the use of the novel selective inhibitor of mucin expression, GalNAcβ-benzyl, allow analysis of mucin expression and secretion in different cell line models. […] Most human adenocarcinoma cell lines express and secret mucins and analysis with antibodies to detect protein expression or probes to detect mRNA can reveal the types and quantities of mucins. […] The inhibitory effect on mucin secretion can be quantified by a number of assays known to the skilled in the art including western blot, ELISA, gelfiltration, immunocapture, and other assays.

[2] = target: T1, secreted soluble GalNAc-T2 (sT2) (Homo sapiens, UniProt Q10471); assay: Direct binding ELISA to GalNAc-MUC1 glycopeptide, competitive inhibition, sT2
T1 construct: HIS-tagged secreted human GalNAc-T2 and -T4 were prepared from pAC-GP67-T2-sol and pAC-GP67-T4-sol cDNA; 6xHis (N); thrombin cleavage site (N); T7 tag (N); made in house; host or cells: High Five insect cells (baculovirus)
T1 sequence (Q10471 52-571 limits assumed): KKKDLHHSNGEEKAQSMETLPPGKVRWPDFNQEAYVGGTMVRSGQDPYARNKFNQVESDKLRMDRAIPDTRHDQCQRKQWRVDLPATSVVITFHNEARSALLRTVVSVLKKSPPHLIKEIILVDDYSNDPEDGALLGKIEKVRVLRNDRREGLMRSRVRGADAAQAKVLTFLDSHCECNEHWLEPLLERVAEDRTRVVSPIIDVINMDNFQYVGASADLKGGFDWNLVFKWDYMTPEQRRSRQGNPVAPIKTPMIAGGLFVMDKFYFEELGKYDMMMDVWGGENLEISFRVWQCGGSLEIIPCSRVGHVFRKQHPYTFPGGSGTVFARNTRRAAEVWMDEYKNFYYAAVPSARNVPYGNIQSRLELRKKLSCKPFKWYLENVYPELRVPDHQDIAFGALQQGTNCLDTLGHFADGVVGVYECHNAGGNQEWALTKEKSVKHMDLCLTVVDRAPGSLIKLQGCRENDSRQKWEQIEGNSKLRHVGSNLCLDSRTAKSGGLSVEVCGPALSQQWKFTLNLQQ
Experimental: Protein biotinylation was made as previously reported^62. The pH of 1 ml purified protein (0.3 mg/ml) in PBS was adjusted to pH 9 with 1 M NaOH and 40 μl N-hydroxy-succinimidobiotin (Sigma) dissolved in DMF (10 mg/ml) was added. The solution was mixed end-over-end for 2 hours at room temperature, and dialyzed three times against PBS and an equal volume of glycerol was added. The biotinylated proteins were stored at −20° C. in 50% glycerol until use.
Direct binding ELISA assay was developed as follows: Polystyrene microtiter plates (Maxisorb, Nunc, Denmark) were coated with peptides or enzymatically glycosylated glycopeptides in PBS overnight at 4° C. Plates were washed and blocked with 0.1% Tween20 and 0.2% BSA in PBS for 1 h at room temperature, followed by incubation with biotinylated proteins in PBS with 0.05% Tween20 for 2 h at room temperature. After four washes with PBS, plates were incubated with 1:2,000 dilution streptavidin-HRP (Sigma) in PBS for 30 min at room temperature and washed four times with PBS. Development was performed with 0.5 mg/ml o-phenylenediamine and 0.02% H2O2 at room temperature for 15 min, and reaction stopped by adding 100 μl/well of 0.5 N H2SO4. Competitive inhibition assays were done at end-point titers of GalNAc-transferase proteins with one hour preincubations with inhibitor.
In binding studies using lectins without biotinylation antibodies to the HIS-tag and the T7-tag, or in some experiments antibodies raised to GalNAc-T2 and -T4 enzymes were used to detect binding.

GalNAc-T4 = target: T2, GalNAc-T4 (Homo sapiens, UniProt Q8N4A0); assay: Inhibition of glycosylation dependent (GalNAc-glycopeptide) activity of GalNAc-T4, MALDI-TOF time-course; type: biochemical; conditions: 10 mM benzyl sugar
T2 construct: using the GalNAc-T4-sol construct that encodes residues 32-578 inserted into pT7T3U19; made in house; host or cells: High Five insect cells (baculovirus, pAcGP67)
T2 sequence (Q8N4A0 32-578): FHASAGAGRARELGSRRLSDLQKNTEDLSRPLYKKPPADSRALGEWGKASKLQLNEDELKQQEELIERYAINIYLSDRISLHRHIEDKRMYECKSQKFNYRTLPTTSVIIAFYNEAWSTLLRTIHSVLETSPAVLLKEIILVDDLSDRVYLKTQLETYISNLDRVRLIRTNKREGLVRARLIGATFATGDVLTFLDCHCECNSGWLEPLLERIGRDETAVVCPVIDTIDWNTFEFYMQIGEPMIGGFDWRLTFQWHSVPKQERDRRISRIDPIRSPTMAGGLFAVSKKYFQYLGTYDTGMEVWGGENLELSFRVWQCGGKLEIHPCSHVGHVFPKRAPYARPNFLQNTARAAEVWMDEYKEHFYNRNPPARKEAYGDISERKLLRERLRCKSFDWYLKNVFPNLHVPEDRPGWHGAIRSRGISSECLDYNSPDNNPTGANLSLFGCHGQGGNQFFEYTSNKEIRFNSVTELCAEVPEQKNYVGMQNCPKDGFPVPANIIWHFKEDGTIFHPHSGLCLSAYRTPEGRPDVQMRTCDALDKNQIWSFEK
Experimental: MALDI-TOF time-course in terminal reactions were performed in reactions of 25 μl containing 2.5 nmol acceptor (glyco)peptide, 40 nmol UDP-GalNAc, and 0.4 μg GalNAc-T4. Sampling of reactions (1 μl) were purified by nano-scale reversed-phase chromatography (Poros R3, PerSeptive Biosystem) and applied directly to the probe with matrix (41). The amount of GalNAc-transferase added was adjusted so that the reaction with the appropriate peptide was near completion in six hours. Reactions were incubated at 37° C. in a shaker bath. At times 0, 2 hours, and 16 hours a 1 μl aliquot was taken and purified. Mass spectra were acquired on either Voyager-DE mass spectrometer equipped with delayed extraction (Perseptive Biosystem Inc.). The matrix used was 2,5-dihydroxybenzoic acid (10 mg/ml, Hewlett-Packard) dissolved in a 2:1 mixture of 0.1% trifluoroacetic acid in 30% aqueous acetonitrile (Rathburn Ltd.).
Quantification of purified proteins was done by Coomassie stained SDS-PAGE and titration of immunoreactivity with the monoclonal antibody, UH6(4G2) (8). […] Wild-type GalNAc-T4 and mutant GalNAc-T4, GalNAc-T4^459H, were analysed with unglycosylated peptides (represented by PSGL-1) or GalNAc glycosylated glycopeptides (represented by GalNAc3TAP25V21) in reactions of 25 μl containing 2.5 nmol acceptor (glyco)peptide, 40 nmol UDP-GalNAc, and 0.4 μg GalNAc-T4. Time-course assays were motioned by MALDI-TOF. Sampling of reactions (1 μl) were purified by nano-scale reversed-phase chromatography (Poros R3, PerSeptive Biosystem) and applied directly to the probe with matrix. Evaluation of inhibition of the glycopeptide specificity of wild-type GalNAc-T4 with free sugars was performed to establish if the lectin domain recognized carbohydrate. […] Further, analysis was performed with 10 mM α-D-GalNAc-1-benzyl, αGlcNAc-benzyl, and fully occupied GalNAc-glycopeptide, GalNAc6TAP25, at 5 mM.

| SMILES | Secreted MUC1 in medium [1] | IC50 [2] [mM] | Inhibition of glycosylation dependent specificity of GalNAc-T4 (GalNAc-T4) |
| --- | --- | --- | --- |
| CC(=O)N[C@H]1[C@@H](OCc2ccccc2)O[C@H](CO)[C@H](O)[C@@H]1O [GalNAcα-benzyl] | inhibition of secreted MUC1 | – | – |
| CC(=O)N[C@H]1[C@@H](OCc2ccccc2)O[C@H](CO)[C@@H](O)[C@@H]1O [GlcNAcα-benzyl] | – | > 100 | did not inhibit |
